In ChEMBL document CHEMBL1154623, “S-glycosyl primary sulfonamides--a new structural class for selective inhibition of cancer-associated carbonic anhydrases” (J Med Chem, 2009) one finds Ki, Papp and degraded data, which are given here for 11 compounds.

The target of one data set is Carbonic anhydrase 9 (Homo sapiens, UniProt Q16790).
A short description of data set [1]: Apparent effective permeability by PAMPA method. Format: ADME. The conditions noted are these: read-out: permeability. In general terms: PAMPA measures passive passage across an artificial lipid membrane.
The nature of data set [2]: Chemical stability during PAMPA assessed as compound degradation. Format: physicochemical. As to conditions: read-out: Activity.

Description for Carbonic anhydrase 9: Inhibition of human cloned CA9 catalytic domain by stopped flow CO2 hydration assay

By Ki is commonly meant the equilibrium dissociation constant of an inhibitor or competing ligand from its target. A lower Ki goes with tighter binding. In the case of `CC(=O)OC[C@H]1O[C@@H](S(N)(=O)=O)[C@H](OC(C)=O)[C@@H](OC(C)=O)[C@H]1OC(C)=O`, affinity on Carbonic anhydrase 9 was put at a Ki of 4.09 µM.
At Carbonic anhydrase 9, `CC(=O)OC[C@H]1O[C@@H](O[C@H]2[C@H](OC(C)=O)[C@@H](OC(C)=O)[C@H](S(N)(=O)=O)O[C@@H]2COC(C)=O)[C@H](OC(C)=O)[C@@H](OC(C)=O)[C@H]1OC(C)=O` showed a Ki of 4.03 µM.
As for `CC1(C)O[C@@H]2[C@@H](CO[C@@]3(COS(N)(=O)=O)OC(C)(C)O[C@@H]23)O1` [TOPIRAMATE], the Papp in data set [1] came to 0.54 ×10⁻⁶ cm/s.
As for `NS(=O)(=O)[C@@H]1O[C@H](CO)[C@@H](O[C@H]2O[C@H](CO)[C@@H](O)[C@H](O)[C@H]2O)[C@H](O)[C@H]1O`, the Papp in data set [1] was less than 0.5 ×10⁻⁶ cm/s. Moreover, on Carbonic anhydrase 9, affinity was put at a Ki of 4.22 µM.
Take `CC(=O)OC[C@H]1O[C@@H](S(N)(=O)=O)[C@H](OC(C)=O)[C@@H](OC(C)=O)[C@@H]1OC(C)=O`: the degraded in data set [2] turned out to be 35%. Further, the Papp in data set [1] was less than 0.1 ×10⁻⁶ cm/s. Further, on Carbonic anhydrase 9, the affinity, expressed as Ki, was 3.91 µM.
Consider `CC(=O)OC[C@H]1O[C@@H](S(N)(=O)=O)[C@H](OC(C)=O)[C@@H](OC(C)=O)[C@@H]1O[C@H]1O[C@H](COC(C)=O)[C@@H](OC(C)=O)[C@H](OC(C)=O)[C@H]1OC(C)=O`, for which, in data set [1], the Papp was less than 0.02 ×10⁻⁶ cm/s. The compound further returned a Ki at Carbonic anhydrase 9 of 4.08 µM.
For `NS(=O)(=O)[C@@H]1O[C@H](CO)[C@@H](O)[C@H](O)[C@H]1O`, in that order: less than 0.4 ×10⁻⁶ cm/s and 4.05 µM.
`NS(=O)(=O)[C@@H]1O[C@H](CO)[C@@H](O[C@@H]2O[C@H](CO)[C@H](O)[C@H](O)[C@H]2O)[C@H](O)[C@H]1O`: at Carbonic anhydrase 9, the Ki was found to be 4.19 µM.
For the compound `CC(=O)Nc1nnc(S(N)(=O)=O)s1` [ACETAZOLAMIDE], in data set [1], the Papp was less than 0.15 ×10⁻⁶ cm/s.
Take `NS(=O)(=O)[C@@H]1O[C@H](CO)[C@H](O)[C@H](O)[C@H]1O`: on Carbonic anhydrase 9, the Ki came to 4.19 µM.
On the same count and under the same terms, to `COC(=O)[C@H]1O[C@@H](S(N)(=O)=O)[C@H](OC(C)=O)[C@@H](OC(C)=O)[C@@H]1OC(C)=O` belongs 4.15 µM.
